# Measurements reported in patent publication US8026218B2, “Bifunctional analgesic compounds for opioid receptor agonists and neurokinin-1 receptor antagonists” (The University of Arizona, priority 2006, dated 2011).
# Read-outs that look alike come from different tables or passages of the source.
# Key:
# [1] = biological target: T1, human NK1 receptor (hNK1) (Homo sapiens, UniProt P25103); assay: Radioligand competition binding, [3H]-Substance P, hNK1; details: read-out: Affinity hNK1 (Ki; nM)
# T1 construct: expressed in transfected cells
# T1 sequence (P25103 whole entry): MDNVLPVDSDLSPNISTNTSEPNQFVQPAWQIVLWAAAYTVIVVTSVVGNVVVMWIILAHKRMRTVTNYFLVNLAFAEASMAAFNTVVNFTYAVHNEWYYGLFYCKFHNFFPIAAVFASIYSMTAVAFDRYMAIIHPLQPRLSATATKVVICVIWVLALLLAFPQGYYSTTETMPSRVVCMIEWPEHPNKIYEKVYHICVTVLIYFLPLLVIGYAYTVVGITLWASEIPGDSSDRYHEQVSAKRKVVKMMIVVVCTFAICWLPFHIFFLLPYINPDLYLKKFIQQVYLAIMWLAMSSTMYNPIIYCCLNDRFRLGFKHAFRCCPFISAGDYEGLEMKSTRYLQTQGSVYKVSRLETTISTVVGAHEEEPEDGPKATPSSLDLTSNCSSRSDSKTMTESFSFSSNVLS
# [2] = biological target: T2, human δ opioid receptors (hDOR) (Homo sapiens, UniProt P41143); assay: Radioligand competition binding, [3H]DPDPE, hDOR membranes; details: for LogIC50, hDOR, [3H]DPDPE: membranes from transfected HN9.10 cells
# T2 construct: expressed in transfected cells; host or cells: HN9.10 neuroblastoma cell line, pCDNA3, neomycin-selected clones
# T2 sequence (P41143 whole entry): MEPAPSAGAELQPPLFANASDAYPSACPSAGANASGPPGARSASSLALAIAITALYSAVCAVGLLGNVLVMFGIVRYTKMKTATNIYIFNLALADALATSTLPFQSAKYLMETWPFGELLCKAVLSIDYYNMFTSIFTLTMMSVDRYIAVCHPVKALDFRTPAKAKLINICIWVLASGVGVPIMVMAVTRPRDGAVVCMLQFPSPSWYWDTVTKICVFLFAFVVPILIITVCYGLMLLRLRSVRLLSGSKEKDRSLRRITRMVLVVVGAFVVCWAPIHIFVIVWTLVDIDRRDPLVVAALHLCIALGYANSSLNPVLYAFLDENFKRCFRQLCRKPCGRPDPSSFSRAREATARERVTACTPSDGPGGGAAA
# δ opioid receptors (MVD) = biological target: T3, δ opioid receptors (MVD) (Mus musculus, UniProt P32300); assay: Mouse isolated vas deferens (MVD) assay, opioid agonist
# T3 construct: from tissue; host or cells: mouse (ICR) isolated vas deferens
# T3 sequence (P32300 whole entry): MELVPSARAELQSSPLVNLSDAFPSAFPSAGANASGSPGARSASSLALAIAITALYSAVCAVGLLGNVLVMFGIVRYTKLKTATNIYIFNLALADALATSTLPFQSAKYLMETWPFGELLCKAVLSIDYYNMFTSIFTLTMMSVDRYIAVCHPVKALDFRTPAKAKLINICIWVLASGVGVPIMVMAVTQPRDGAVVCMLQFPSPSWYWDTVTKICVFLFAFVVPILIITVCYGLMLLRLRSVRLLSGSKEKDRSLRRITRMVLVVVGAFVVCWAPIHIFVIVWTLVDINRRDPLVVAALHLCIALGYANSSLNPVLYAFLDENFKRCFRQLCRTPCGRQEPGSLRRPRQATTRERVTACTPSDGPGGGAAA
# [3] = biological target: T4, rat μ opioid receptors (rMOR) (Rattus norvegicus, UniProt P33535); assay: biochemical; type: biochemical
# T4 construct: expressed in transfected cells; host or cells: HN9.10 neuroblastoma cell line, pCDNA3, neomycin-selected clones
# T4 sequence (P33535 whole entry): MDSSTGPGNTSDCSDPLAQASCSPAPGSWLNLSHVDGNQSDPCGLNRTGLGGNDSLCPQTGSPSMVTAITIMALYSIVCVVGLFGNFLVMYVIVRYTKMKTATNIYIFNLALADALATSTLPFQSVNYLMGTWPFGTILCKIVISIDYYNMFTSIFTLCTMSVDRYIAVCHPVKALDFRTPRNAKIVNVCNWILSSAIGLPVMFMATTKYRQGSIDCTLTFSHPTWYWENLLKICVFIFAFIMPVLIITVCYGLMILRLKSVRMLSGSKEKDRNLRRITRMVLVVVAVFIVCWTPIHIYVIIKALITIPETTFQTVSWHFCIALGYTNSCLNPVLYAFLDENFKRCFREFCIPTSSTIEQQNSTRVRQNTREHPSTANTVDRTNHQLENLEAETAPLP
# [4] = biological target: T2, human δ opioid receptors (hDOR); assay: [35S]GTP-γ-S binding assay, hDOR; type: biochemical
# [5] = biological target: T4, rat μ opioid receptors (rMOR); assay: Radioligand competition binding, [3H]DAMGO, rMOR membranes
# [6] = biological target: T5, Substance P receptors (guinea pig NK1) (Cavia porcellus, UniProt P30547); assay: Guinea pig isolated ileum (GPI) assay with substance P stimulation in presence of 1 μM naloxone; details: for Kb: Substance P antagonist, GPI, Ke, in the presence of 1 μM naloxone; for activation at 1 µM: read-out: Substance P GPI agonist (A50), contraction relative to initial muscle contraction with KCl
# T5 construct: from tissue; host or cells: guinea pig (Hartley) ileum LMMP, 1 μM naloxone present
# T5 sequence (P30547 whole entry): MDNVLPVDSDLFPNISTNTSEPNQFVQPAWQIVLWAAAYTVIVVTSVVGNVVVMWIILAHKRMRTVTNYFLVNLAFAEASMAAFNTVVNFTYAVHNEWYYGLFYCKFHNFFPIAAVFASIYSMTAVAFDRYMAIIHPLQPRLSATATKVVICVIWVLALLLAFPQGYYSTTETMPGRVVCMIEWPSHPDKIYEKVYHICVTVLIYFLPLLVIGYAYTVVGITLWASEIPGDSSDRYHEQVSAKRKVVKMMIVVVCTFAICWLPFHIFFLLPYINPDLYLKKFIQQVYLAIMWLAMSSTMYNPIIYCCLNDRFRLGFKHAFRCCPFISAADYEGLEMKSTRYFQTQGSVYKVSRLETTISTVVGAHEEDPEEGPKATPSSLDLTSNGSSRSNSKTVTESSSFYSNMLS
# rat NK1 (rNK1) receptor = biological target: T6, rat NK1 (rNK1) receptor (Rattus norvegicus, UniProt P14600); assay: Radioligand competition binding, [3H]substance P, rNK1/CHO membranes; details: for IC50: membranes from transfected CHO cells
# T6 construct: expressed in transfected cells; host or cells: CHO (rNK-1/CHO cell line from Dr. James Krause)
# T6 sequence (P14600 whole entry): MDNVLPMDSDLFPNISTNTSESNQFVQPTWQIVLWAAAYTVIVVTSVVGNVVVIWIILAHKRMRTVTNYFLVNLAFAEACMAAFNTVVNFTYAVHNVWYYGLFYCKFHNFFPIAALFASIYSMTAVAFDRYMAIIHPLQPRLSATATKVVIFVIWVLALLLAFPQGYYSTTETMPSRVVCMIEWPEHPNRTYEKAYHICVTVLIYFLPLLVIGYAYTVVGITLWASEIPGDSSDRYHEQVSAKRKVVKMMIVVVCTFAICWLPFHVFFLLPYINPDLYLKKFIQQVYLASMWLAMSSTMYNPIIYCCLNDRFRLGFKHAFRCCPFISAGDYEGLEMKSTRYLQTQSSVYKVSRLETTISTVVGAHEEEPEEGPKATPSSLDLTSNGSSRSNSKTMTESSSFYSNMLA
# μ opioid receptors (GPI) = assay: Guinea pig isolated ileum (GPI) assay, opioid agonist; parameters: GPI/LMMP Opioid(m) Agonist, % inh.: unit of the concentration uncertain;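 further: inhibition of electrically evoked contractions (0.1 Hz, 0.4 msec, supramaximal voltage) in organ baths at 37 °C, contraction height 3 min after each cumulative dose versus the 1 min before dosing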
# [7] = Table 28, read-out: MVD Opioid (d) Agonist (IC50; nM)
# [8] = Table 39, read-out: MVD opioid(delta) agonist (IC50; nM)
# [9] = electrically stimulated isolated tissue, read-out: MVD (δ), IC50
# [10] = read-out: EC50, hDOR, [35S]GTP-γ-S binding
# [11] = IC50, rNK1, Substance P radioligand
# [12] = LogIC50, rNK1, Substance P radioligand
# [13] = Table 27, read-out: GTP binding hDOR EC50
# [14] = Table 27, read-out: GTP binding hDOR Emax (%)
# [15] = Table 39, read-out: GTP binding hDOR EC50
# [16] = Table 39, read-out: GTP binding hDOR Emax
# [17] = net total bound/basal binding × 100, read-out: Emax, hDOR, [35S]GTP-γ-S binding
# [18] = Table 28, read-out: GPI/LMMP Opioid(m) Agonist (IC50; nM)
# [19] = Table 39, read-out: GPI/LMMP opioid(mu) agonist (IC50; nM)
# [20] = electrically stimulated isolated tissue, read-out: GPI (μ), IC50
compound,measurement,setting,value
CCCC[C@H](NC(=O)[C@H](Cc1ccccc1)NC(=O)CNC(=O)[C@@H](C)NC(=O)[C@@H](N)Cc1c(C)cc(O)cc1C)C(=O)N1CCC[C@H]1C(=O)N[C@@H](CC(C)C)C(=O)N[C@@H](Cc1c[nH]c2ccccc12)C(=O)N(C)Cc1cc(C(F)(F)F)cc(C(F)(F)F)c1 [TY052],Ki,[1]; Table 31,0.21 nM
same,Ki,[1]; Table 39,0.21 nM
same,Ki,"[2]; Table 31, read-out: Affinity hDOR (Ki; nM)",0.46 nM
same,Ki,"[2]; Table 39, read-out: Affinity hDOR (Ki; nM)",0.46 nM
"CC(C)C[C@H](NC(=O)[C@@H]1CCCN1C(=O)[C@H](Cc1ccccc1)NC(=O)[C@H](Cc1ccccc1)NC(=O)CNC(=O)[C@@H](C)NC(=O)[C@@H](N)Cc1ccc(O)cc1)C(=O)N[C@@H](Cc1c[nH]c2ccccc12)C(=O)OCc1cc(C(F)(F)F)cc(C(F)(F)F)c1 [TY003, H-Tyr-D-Ala-Gly-Phe-Phe-Pro-Leu-Trp-O-3,5-Bzl(CF3)2]",IC50,δ opioid receptors (MVD); [7],905 nM
same,IC50,δ opioid receptors (MVD); [8],905 nM
same,IC50,δ opioid receptors (MVD); [9],905 ± 186 nM
same,"LogEC50, rMOR, [35S]GTP-γ-S binding",[3],−7.23 ± 0.18
same,EC50,"[3]; Table 27, read-out: GTP binding rMOR EC50",58.7 nM
same,Emax,"[3]; Table 27, read-out: GTP binding rMOR Emax (%)",36.3%
same,EC50,"[3]; Table 39, read-out: GTP binding rMOR EC50",58.7 nM
same,Emax,"[3]; Table 39, read-out: GTP binding rMOR Emax",36.3%
same,Emax,"[3]; net total bound/basal binding × 100, read-out: Emax, rMOR, [35S]GTP-γ-S binding",41%
same,EC50,"[3]; read-out: EC50, rMOR, [35S]GTP-γ-S binding",58.7 nM
same,Ki(μ)/Ki(δ),[4],2.8
same,"LogEC50, hDOR, [35S]GTP-γ-S binding",[4],−7.68 ± 0.20
same,EC50,[4]; [10],20.8 nM
same,Emax,"[4]; read-out: Emax, hDOR, [35S]GTP-γ-S binding",39%
same,EC50,[4]; read-out: GTP binding hDOR EC50,20.8 nM
same,Emax,[4]; read-out: GTP binding hDOR Emax,39%
same,Emax,[4]; read-out: GTP binding hDOR Emax (%),39%
same,Ki,"[5]; Table 27, read-out: Affinity rMOR (Ki; nM)",28.3 nM
same,Ki,"[5]; Table 39, read-out: Affinity rMOR (Ki; nM)",28.3 nM
same,"LogIC50, rMOR, [3H]DAMGO",[5]; membranes from transfected HN9.10 cells,−7.22 ± 0.10
same,Ki,"[5]; read-out: Ki, rMOR, [3H]DAMGO",28.3 nM
same,Kb,[6],14.4 ± 4.9 nM
same,GPI/LMMP SP Agonist (IC50; nM),"[6]; Table 39, concentration not given",none
same,activation at 1 µM,[6],0%
same,IC50,rat NK1 (rNK1) receptor; [11],19.3 nM
same,IC50,rat NK1 (rNK1) receptor; [12],19.1 nM
same,"GPI/LMMP Opioid(m) Agonist, % inh.","μ opioid receptors (GPI); Table 28, at 1 (unit uncertain)",7% inh. at 1 mM
same,GPI/LMMP opioid(mu) Antagonist,μ opioid receptors (GPI); Table 39,none
same,"GPI/LMMP opioid(mu) agonist, % at 1 uM","μ opioid receptors (GPI); Table 39, at 1 uM",6.6% @ 1 uM
same,"GPI (μ), effect at single concentration",μ opioid receptors (GPI); at 1 μM,7% at 1 μM^b
same,Ki,[2],14.6 nM
same,Ki(μ)/Ki(δ),"[2]; binding, rMOR vs hDOR",1.9
same,"LogIC50, hDOR, [3H]DPDPE",[2],−7.50 ± 0.14
"CCCC[C@H](NC(=O)[C@H](Cc1ccccc1)NC(=O)CNC(=O)[C@@H](C)NC(=O)[C@@H](N)Cc1ccc(O)cc1)C(=O)N1CCC[C@H]1C(=O)N[C@@H](CC(C)C)C(=O)N[C@@H](Cc1c[nH]c2ccccc12)C(=O)OCc1cc(C(F)(F)F)cc(C(F)(F)F)c1 [TY018, H-Tyr-D-Ala-Gly-Phe-Nle-Pro-Leu-Trp-O-3,5-Bzl(CF3)2]",IC50,δ opioid receptors (MVD),16.8 ± 2.4 nM
same,IC50,δ opioid receptors (MVD); [8],16.8 nM
same,"LogEC50, hDOR, [35S]GTP-γ-S binding",[4],−8.40 ± 0.11
same,EC50,[4]; [13],4 nM
same,Emax,[4]; [14],131%
same,EC50,[4]; [15],4 nM
same,Emax,[4]; [16],131%
same,Emax,[4]; [17],129%
same,EC50,[4]; [10],4 nM
same,Kb,[6],7.9 ± 1.9 nM
same,activation at 1 µM,[6],0%
same,Ki,"rat NK1 (rNK1) receptor; Ki, rNK1, text",14.8 nM
same,IC50,rat NK1 (rNK1) receptor; [12],13.5 nM
same,IC50,μ opioid receptors (GPI); [18],372 nM
same,IC50,μ opioid receptors (GPI); [19],372 nM
same,IC50,μ opioid receptors (GPI); [20],372 ± 65 nM
same,"LogIC50, hDOR, [3H]DPDPE",[2],−8.42 ± 0.15
"CC(C)C[C@H](NC(=O)[C@@H]1CCCN1C(=O)[C@H](CC[S+](C)[O-])NC(=O)[C@H](Cc1ccccc1)NC(=O)CNC(=O)[C@@H](C)NC(=O)[C@@H](N)Cc1ccc(O)cc1)C(=O)N[C@@H](Cc1c[nH]c2ccccc12)C(=O)OCc1cc(C(F)(F)F)cc(C(F)(F)F)c1 (stereo partly drawn) [TY023, H-Tyr-D-Ala-Gly-Phe-Met(O)-Pro-Leu-Trp-O-3,5-Bzl(CF3)2]",IC50,δ opioid receptors (MVD); [7],33 nM
same,IC50,δ opioid receptors (MVD); [8],33 nM
same,IC50,δ opioid receptors (MVD); [9],33 nM
same,"LogEC50, hDOR, [35S]GTP-γ-S binding",[4],−8.73 ± 0.20
same,EC50,[4]; [13],1.8 nM
same,Emax,[4]; [14],52.8%
same,EC50,[4]; [15],1.8 nM
same,Emax,[4]; [16],52.8%
same,Emax,[4]; [17],53%
same,EC50,[4]; [10],1.8 nM
same,Kb,[6],7.8 ± 4 nM
same,IC50,rat NK1 (rNK1) receptor; [11],54.5 nM
same,Ki,"rat NK1 (rNK1) receptor; Ki, rNK1, text",54.5 nM
same,Ki,"rat NK1 (rNK1) receptor; Table 39, read-out: Affinity rNK1 (Ki; nM)",0.2 nM
same,IC50,μ opioid receptors (GPI); [18],154 nM
same,IC50,μ opioid receptors (GPI); [19],154 nM
same,IC50,μ opioid receptors (GPI); [20],154 nM
same,"LogIC50, hDOR, [3H]DPDPE",[2],−7.92 ± 0.04
same,Ki,"[2]; read-out: Ki, hDOR, [3H]DPDPE",4.8 nM
